{
  "source": "patent US7365225B2",
  "about": "“Aryl dicarboxamides” (Laboratoires Serono SA, priority 2003, dated 2008)",
  "type_in_all_cases": "biochemical",
  "key": {"GLEPP-1": {"target": "T1, GLEPP-1 (Homo sapiens, UniProt Q16827)", "T1 construct": "using the catalytic core of a human recombinant PTP as the enzyme; made in house", "T1 sequence (Q16827 938-1195 limits assumed)": "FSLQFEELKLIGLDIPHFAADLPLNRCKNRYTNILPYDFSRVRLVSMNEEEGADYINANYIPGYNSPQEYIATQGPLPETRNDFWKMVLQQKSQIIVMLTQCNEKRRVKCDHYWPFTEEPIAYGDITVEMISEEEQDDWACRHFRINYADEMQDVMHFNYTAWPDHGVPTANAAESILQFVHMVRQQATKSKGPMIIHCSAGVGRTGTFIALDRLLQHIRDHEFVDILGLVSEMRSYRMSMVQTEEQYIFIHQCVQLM", "assay": "PTP Enzyme Assay (DiFMUP), GLEPP-1", "conditions": "catalytic core of human recombinant PTP; 30 μM DiFMUP; 30 minutes at room temperature; read-out: IC50 value in respect of GLEPP-1", "experimental": "(§1) The PTP Enzyme Assay aims at determining the extent of inhibition of PTPs, e.g. of PTP1B, SHP-1, SHP-2, or GLEPP-1 in the presence of a test compound of formula (I). The inhibition is illustrated by IC50 values which denote the concentration of test compound necessary to achieve an inhibition of 50% of said PTP's using the following concentration of the PTP substrate DiFMUP: • 5 μM DiFMUP for PTP1B; • 20 μM DiFMUP for SHP-1 and SHP-2; • 30 μM DiFMUP for GLEPP-1. a) PTPs Cloning […]\n(§2) Assays were performed in a 96 well plate format, using the catalytic core of a human recombinant PTP as the enzyme and 6,8-DiFluoro-4-MethylUmbelliferyl Phosphate (DiFMUP, Molecular Probes, D-6567) as a substrate. […] The reaction ran for 30 minutes at room temperature before reading the fluorescence intensity (integral or intensity) on a Perkin-Elmer Victor 2 spectrofluorimeter (excitation of 6,8-difluoro-7-hydroxy coumarin is at 355 nm, the emission at 460 nm, for 0.1 s). The percentage of inhibition is determined by measuring the relative fluorescence ion absence of a test compound (PTP inhibitor), i.e. with the solvent alone (5% DMSO). The IC50 values for inhibition were determined in triplicates."}, "SHP-2": {"target": "T2, SHP-2 (Homo sapiens, UniProt Q06124)", "T2 construct": "using the catalytic core of a human recombinant PTP as the enzyme; made in house", "T2 sequence (Q06124 247-517 limits assumed)": "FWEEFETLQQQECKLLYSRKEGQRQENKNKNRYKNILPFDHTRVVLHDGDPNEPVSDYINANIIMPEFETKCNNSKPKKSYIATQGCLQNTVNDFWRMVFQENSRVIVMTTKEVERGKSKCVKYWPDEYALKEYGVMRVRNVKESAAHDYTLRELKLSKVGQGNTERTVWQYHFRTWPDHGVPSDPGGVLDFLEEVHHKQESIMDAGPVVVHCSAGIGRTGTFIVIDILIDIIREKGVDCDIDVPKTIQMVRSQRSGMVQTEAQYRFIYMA", "assay": "PTP Enzyme Assay (DiFMUP), SHP-2", "conditions": "catalytic core of human recombinant PTP; 20 μM DiFMUP; 30 minutes at room temperature; read-out: IC50 value in respect of SHP-2", "experimental": "as §1, §2"}, "SHP-1": {"target": "T3, SHP-1 (Homo sapiens, UniProt P29350)", "T3 construct": "using the catalytic core of a human recombinant PTP as the enzyme; made in house", "T3 sequence (P29350 244-515 limits assumed)": "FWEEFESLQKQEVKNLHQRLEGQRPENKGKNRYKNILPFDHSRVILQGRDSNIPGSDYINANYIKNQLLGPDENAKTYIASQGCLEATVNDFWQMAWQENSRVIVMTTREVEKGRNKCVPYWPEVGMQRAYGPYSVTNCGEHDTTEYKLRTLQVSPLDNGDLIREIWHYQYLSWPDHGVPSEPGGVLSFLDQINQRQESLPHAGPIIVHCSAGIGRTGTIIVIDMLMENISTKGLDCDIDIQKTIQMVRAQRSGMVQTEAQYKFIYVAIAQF", "assay": "PTP Enzyme Assay (DiFMUP), SHP-1", "conditions": "catalytic core of human recombinant PTP; 20 μM DiFMUP; 30 minutes at room temperature; read-out: IC50 value in respect of SHP-1", "experimental": "as §1, §2"}, "PTP1B": {"target": "T4, PTP1B (Homo sapiens, UniProt P18031)", "T4 construct": "using the catalytic core of a human recombinant PTP as the enzyme; made in house", "T4 sequence (P18031 3-277 limits assumed)": "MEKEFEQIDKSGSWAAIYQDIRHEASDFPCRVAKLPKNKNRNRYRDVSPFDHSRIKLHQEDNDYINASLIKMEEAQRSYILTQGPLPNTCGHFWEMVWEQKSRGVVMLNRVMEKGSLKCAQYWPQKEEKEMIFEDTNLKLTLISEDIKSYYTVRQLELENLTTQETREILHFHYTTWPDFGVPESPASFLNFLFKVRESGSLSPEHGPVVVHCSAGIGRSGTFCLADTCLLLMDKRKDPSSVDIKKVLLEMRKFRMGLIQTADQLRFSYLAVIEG", "assay": "PTP Enzyme Assay (DiFMUP), PTP1B", "conditions": "catalytic core of human recombinant PTP; 5 μM DiFMUP; 30 minutes at room temperature; read-out: IC50 value in respect of PTP1B", "experimental": "The PTP Enzyme Assay aims at determining the extent of inhibition of PTPs, e.g. of PTP1B, SHP-1, SHP-2, or GLEPP-1 in the presence of a test compound of formula (I). The inhibition is illustrated by IC50 values which denote the concentration of test compound necessary to achieve an inhibition of 50% of said PTP's using the following concentration of the PTP substrate DiFMUP: • 5 μM DiFMUP for PTP1B; • 20 μM DiFMUP for SHP-1 and SHP-2; • 30 μM DiFMUP for GLEPP-1. a) PTPs Cloning\nThe cloning and expression of the catalytic domain e.g. of PTP1B, may be performed as described in J. Biol. Chem. 2000, 275(13), pp 9792-9796. […]\nas §2"}},
  "data": [
    {"smiles": "O=C(NCc1ccc(Oc2ccccc2)cc1)c1ccc(CN(C(=O)CCC2CCCC2)c2ccc(O)c(C(=O)O)c2)cc1", "note": "[Example 1, 5-[(3-cyclopentylpropanoyl)(4-{[(4-phenoxybenzyl)amino]carbonyl}benzyl)amino]-2-hydroxybenzoic acid]", "values": [
      {"measurement": "IC50", "setting": "GLEPP-1", "value": 1200, "unit": "nM"},
      {"measurement": "IC50", "setting": "SHP-2", "value": 1900, "unit": "nM"},
      {"measurement": "IC50", "setting": "SHP-1", "value": 4000, "unit": "nM"},
      {"measurement": "IC50", "setting": "PTP1B", "value": 1000, "unit": "nM"}
    ]}
  ]
}
